Molecular target: T1, USP5 (Homo sapiens, UniProt P45974)
T1 sequence (P45974 1-858): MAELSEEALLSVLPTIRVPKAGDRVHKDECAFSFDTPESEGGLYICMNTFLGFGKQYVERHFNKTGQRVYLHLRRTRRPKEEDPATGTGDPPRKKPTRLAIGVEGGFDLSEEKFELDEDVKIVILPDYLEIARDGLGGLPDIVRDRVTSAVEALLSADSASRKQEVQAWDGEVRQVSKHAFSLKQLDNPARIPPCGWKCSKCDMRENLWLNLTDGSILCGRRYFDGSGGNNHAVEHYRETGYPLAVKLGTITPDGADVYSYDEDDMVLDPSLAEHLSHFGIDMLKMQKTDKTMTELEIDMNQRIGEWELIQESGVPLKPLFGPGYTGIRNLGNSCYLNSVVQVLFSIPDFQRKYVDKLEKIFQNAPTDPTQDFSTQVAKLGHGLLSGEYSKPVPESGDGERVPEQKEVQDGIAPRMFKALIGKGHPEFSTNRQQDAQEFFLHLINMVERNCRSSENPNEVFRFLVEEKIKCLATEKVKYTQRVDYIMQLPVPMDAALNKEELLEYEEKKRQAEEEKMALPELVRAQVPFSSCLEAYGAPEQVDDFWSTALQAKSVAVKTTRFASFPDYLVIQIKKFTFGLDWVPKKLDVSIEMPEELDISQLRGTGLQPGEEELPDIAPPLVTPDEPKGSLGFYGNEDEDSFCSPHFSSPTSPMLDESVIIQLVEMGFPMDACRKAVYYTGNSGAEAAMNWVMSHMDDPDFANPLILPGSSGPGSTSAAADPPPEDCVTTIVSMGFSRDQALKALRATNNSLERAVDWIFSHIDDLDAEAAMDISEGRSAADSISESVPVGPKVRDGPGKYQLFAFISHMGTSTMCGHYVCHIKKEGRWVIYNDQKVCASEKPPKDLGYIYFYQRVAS
Experiment: USP5 activity assay (Ub-AMC)
Format: biochemical
Settings: 300 nM Ub-AMC, 300 pM enzyme; compounds tested from 200 µM to 91 nM; unit inferred; read-out: Inhibition of cysteine protease activities: USP 5
Experimental: USP5 was diluted in USP buffer (50 mM Tris HCl; 0.5 mM EDTA; 5 mM DTT; 0.01% Triton X-100; Bovine Serum Albumin 0.05 mg.ml^-1 pH 7.6). Compounds stocks (100 mM) were stored at -20°C in DMSO. Compounds were tested at different concentrations: from 200 µM to 91 nM. Reactions were performed as duplicates in Black LJL 96 well plates (HE microplates; Molecular Devices; 20 µl final reaction volume). The substrate concentration for USP5 was 300 nM Ub-AMC (Boston Biochem). The concentrations of the enzyme (USP5) in specificity assays was 300 pM. The concentrations were determined in order to perform specificity assays under initial velocities at fixed substrate concentration. Compounds were pre-incubated with enzymes for 30 minutes at 25°C. Reactions were initiated by addition of substrate to the plates containing the enzymes (+/- compounds) diluted in assay buffer. Reactions were incubated for 60 minutes at 37°C. Reactions were stopped by adding acetic acid (100 mM final). Readings were performed on a Pherastar Fluorescent Reader (BMG). λ Emission 380 nm; λ Excitation = 460 nm. Data (mean values +/- standard deviation) were analyzed as % of control (no compound) and plotted as percentage versus the Log of the compound concentration using GraphPad (Prism). Data were fitted to a sigmoidal model (variable slope).

IC50, > 200 µM:
CC(=O)C1=C(O)C(=O)N(CCc2ccc(Cl)cc2)C1c1ccc(Br)cc1 (stereo not shown) [Example 25, 4-acetyl-5-(4-bromo-phenyl)-1-[2-(4-chloro-phenyl)-ethyl]-3-hydroxy-1,5-dihydro-pyrrol-2-one]
CC(=O)C1=C(O)C(=O)N(CCc2ccc(Br)cc2)C1c1ccc(Br)cc1 (stereo not shown) [Example 26, 4-acetyl-5-(4-bromo-phenyl)-1-[2-(4-bromo-phenyl)-ethyl]-3-hydroxy-1,5-dihydro-pyrrol-2-one]
CC(=O)C1=C(O)C(=O)N(CCc2ccc(Cl)c(Cl)c2)C1c1ccc(Br)cc1 (stereo not shown) [Example 28, 4-acetyl-5-(4-bromo-phenyl)-1-[2-(3,4-dichloro-phenyl)-ethyl]-3-hydroxy-1,5-dihydro-pyrrol-2-one]
COc1cccc(CCN2C(=O)C(O)=C(C(C)=O)C2c2ccc(Br)cc2)c1 (stereo not shown) [Example 30, 4-acetyl-5-(4-bromo-phenyl)-3-hydroxy-1-[2-(3-methoxyphenyl)-ethyl]-1,5-dihydro-pyrrol-2-one]
COc1ccc(CCN2C(=O)C(O)=C(C(C)=O)C2c2ccc(Br)cc2)cc1 (stereo not shown) [Example 32, 4-acetyl-5-(4-bromo-phenyl)-3-hydroxy-1-[2-(4-methoxyphenyl)-ethyl]-1,5-dihydro-pyrrol-2-one]
CC(=O)C1=C(O)C(=O)N(CCc2ccc(F)cc2)C1c1ccc(Br)cc1 (stereo not shown) [Example 33, 4-acetyl-5-(4-bromo-phenyl)-3-hydroxy-1-[2-(4-fluorophenyl)-ethyl]-1,5-dihydro-pyrrol-2-one]
CCOc1ccc(CCN2C(=O)C(O)=C(C(C)=O)C2c2ccc(Br)cc2)cc1 (stereo not shown) [Example 34, 4-acetyl-5-(4-bromo-phenyl)-3-hydroxy-1-[2-(4-ethoxy-phenyl)-ethyl]-1,5-dihydro-pyrrol-2-one]
CC(=O)C1=C(O)C(=O)N(CCc2ccccc2)C1c1ccc2c(c1)OCO2 (stereo not shown) [Example 37, 4-acetyl-5-benzo[1,3]dioxol-5-yl-3-hydroxy-1-phenethyl-1,5-dihydro-pyrrol-2-one]
CC(=O)C1=C(O)C(=O)N(CCc2ccccc2)C1c1ccc(Br)c(Br)c1 (stereo not shown) [Example 41, 4-acetyl-5-(3,4-dibromo-phenyl)-3-hydroxy-1-phenethyl-1,5-dihydro-pyrrol-2-one]
CC(=O)C1=C(O)C(=O)N(CCc2ccccc2)C1c1cccnc1Cl (stereo not shown) [Example 42, 4-acetyl-5-(2-chloro-pyridin-3-yl)-3-hydroxy-1-phenethyl-1,5-dihydro-pyrrol-2-one]
CC(=O)C1=C(O)C(=O)N(CCc2ccc(Br)cc2)C1c1ccc(Cl)cc1 (stereo not shown) [Example 45, 4-Acetyl-5-(4-chlorophenyl)-1-[2-(4-bromophenyl)-ethyl]-3-hydroxy-1,5-dihydro-pyrrol-2-one]
CC(=O)C1=C(O)C(=O)N(CCc2ccc(Cl)cc2)C1c1ccc(Cl)cc1 (stereo not shown) [Example 46, 4-Acetyl-5-(4-chlorophenyl)-1-[2-(4-chlorophenyl)-ethyl]-3-hydroxy-1,5-dihydro-pyrrol-2-one]
CC(=O)C1=C(O)C(=O)N(CCc2ccc(Cl)cc2Cl)C1c1ccc(Br)cc1 (stereo not shown) [Example 47, 4-Acetyl-5-(4-bromophenyl)-1-[2-(2,4-dichlorophenyl)-ethyl]-3-hydroxy-1,5-dihydro-pyrrol-2-one]

Source: EP2208725A1, “Novel specific inhibitors of ubiquitin specific protease 7, the pharmaceutical compositions thereof and their therapeutic applications” (Hybrigenics S.A., priority 2009, dated 2010)
